# Experimental data published in patent US20060269605A1, “Multilayer pharmaceutical dosage form containing a substance that acts in a modulatory manner with regard to the release of active substances” (Roehm Gmbh & Co. KG, priority 2003, published 2006).
# Assay: active ingredient delivery in PhEur phosphate buffer of pH 6.8 in a USP dissolution tester
# Type: physicochemical
# Settings: modulator as core of theophylline pellets coated with EUDRAGIT RS, no inner controlling layer, versus microcrystalline cellulose core (Example 5)
row,Compound,effect of the substance having a modulating effect on active ingredient delivery
1,O=C(O)CC(O)(CC(=O)O)C(=O)O [citric acid],accelerating effect
2,CC(=O)[O-].[Na+] [sodium acetate],accelerating effect
3,[Cl-].[Na+] [sodium chloride],reducing effect
4,O=C([O-])CCC(=O)[O-].[Na+].[Na+] [sodium succinate],accelerating effect
